Test system: stripped skin of volunteers (vasoconstriction / hyperemia)
Test: Vasoconstriction test on stripped skin of volunteers (topical ointment)
Type: in vivo, human (volunteers)
Protocol: The anti-inflammatory effectiveness of the novel benzimidazole derivatives can be determined in the conventional vasoconstriction test, as follows:
On the backs of volunteers for the experiment, the stratum corneum was removed by the application and tearing off of an adhesive strip, applied 20 times at the same spot, thus producing a pronounced hyperemia. Within the stripped area, respectively 50 mg. of ointment was applied to marked areas having a size of 4 cm^2, this ointment containing respectively 0.1, 0.01 or 0.001%, respectively, of the compound to be tested or of the reference substance in a water-oil base. […]
To determine the vasoconstriction, which is a representative syndrome of topical anti-inflammatory activity, the color value of the untreated skin and the treated stripped skin is measured and compared with the color value of the normal skin, with the color value of the normal skin being assigned the value 100 and the color value of the untreated stripped skin being assigned the value 0. Minor, medium, and high-grade vasoconstriction are evaluated with values between 0 and 100.
The results of such tests employing compounds of this invention (Compounds III and IV) and the prior art compounds Clemizole (I) and Flucortolone (II) are shown in Table I below.

[1] = 0.01% in ointment, observation time 1 hour
[2] = 0.01% in ointment, observation time 4 hours
[3] = 0.01% in ointment, observation time 8 hours
[4] = 0.1% in ointment, observation time 1 hour
[5] = 0.1% in ointment, observation time 4 hours
[6] = 0.1% in ointment, observation time 8 hours
[7] = 0.001% in ointment, observation time 1 hour
[8] = 0.001% in ointment, observation time 4 hours
[9] = 0.001% in ointment, observation time 8 hours

Clc1ccc(Cn2c(CN3CCCC3)nc3ccccc32)cc1 [I, 1-4'Chlorobenzyl-2-pyrrolidinomethyl-benzimidazole]
vasoconstriction (color value; normal skin = 100, untreated stripped skin = 0) [1]: 18
vasoconstriction (color value; normal skin = 100, untreated stripped skin = 0) [2]: 31
vasoconstriction (color value; normal skin = 100, untreated stripped skin = 0) [3]: 33
vasoconstriction (color value; normal skin = 100, untreated stripped skin = 0) [4]: 18
vasoconstriction (color value; normal skin = 100, untreated stripped skin = 0) [5]: 35
vasoconstriction (color value; normal skin = 100, untreated stripped skin = 0) [6]: 45

C[C@@H]1C[C@H]2[C@@H]3C[C@H](F)C4=CC(=O)C=C[C@]4(C)[C@H]3[C@@H](O)C[C@]2(C)[C@H]1C(=O)CO [II, 6 α-Fluoro-11β,21-dihydroxy-16α-methyl-1,4-pregnadiene-3,20-dione]
vasoconstriction (color value; normal skin = 100, untreated stripped skin = 0) [7]: 20
vasoconstriction (color value; normal skin = 100, untreated stripped skin = 0) [8]: 50
vasoconstriction (color value; normal skin = 100, untreated stripped skin = 0) [9]: 60
vasoconstriction (color value; normal skin = 100, untreated stripped skin = 0) [1]: 15
vasoconstriction (color value; normal skin = 100, untreated stripped skin = 0) [2]: 65
vasoconstriction (color value; normal skin = 100, untreated stripped skin = 0) [3]: 85
vasoconstriction (color value; normal skin = 100, untreated stripped skin = 0) [4]: 35
vasoconstriction (color value; normal skin = 100, untreated stripped skin = 0) [5]: 75
vasoconstriction (color value; normal skin = 100, untreated stripped skin = 0) [6]: 85

CCN1CCN(Cc2nc3ccccc3n2Cc2ccccc2O)CC1 [III, 2-(4-Ethyl-1-piperazinyl)-methyl-1-(2-hydroxybenzyl)-benzimidazole]
vasoconstriction (color value; normal skin = 100, untreated stripped skin = 0) [7]: 15
vasoconstriction (color value; normal skin = 100, untreated stripped skin = 0) [8]: 15
vasoconstriction (color value; normal skin = 100, untreated stripped skin = 0) [9]: 20
vasoconstriction (color value; normal skin = 100, untreated stripped skin = 0) [1]: 35
vasoconstriction (color value; normal skin = 100, untreated stripped skin = 0) [2]: 55
vasoconstriction (color value; normal skin = 100, untreated stripped skin = 0) [3]: 55
vasoconstriction (color value; normal skin = 100, untreated stripped skin = 0) [4]: 45
vasoconstriction (color value; normal skin = 100, untreated stripped skin = 0) [5]: 80
vasoconstriction (color value; normal skin = 100, untreated stripped skin = 0) [6]: 85

CCN1CCN(Cc2nc3ccccc3n2Cc2ccc(Cl)cc2)CC1 [IV, 2-(4-Ethyl-1-piperazinyl)-methyl-1-(4-chlorobenzyl)-benzimidazole]
vasoconstriction (color value; normal skin = 100, untreated stripped skin = 0) [7]: 25
vasoconstriction (color value; normal skin = 100, untreated stripped skin = 0) [8]: 65
vasoconstriction (color value; normal skin = 100, untreated stripped skin = 0) [9]: 95
vasoconstriction (color value; normal skin = 100, untreated stripped skin = 0) [1]: 30
vasoconstriction (color value; normal skin = 100, untreated stripped skin = 0) [2]: 85
vasoconstriction (color value; normal skin = 100, untreated stripped skin = 0) [3]: 100
